“And” between values parts separate entries of the source, which are not always exact repeats. Identical values can stand only once.
How the values were obtained:
Details in all cases: incubation time: 72 h
CAL-51 [1] = assay: drug sensitivity score (DSS), CellTiter-Blue viability (DSS (AUC-based score)); higher = stronger viability inhibition; extreme values may be limits of the assay
Procedure: (§1)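 DSRT with the CellTiter-Blue (resazurin reduction) viability readout, fluorescence 560/590 nm, 72 h incubation. Plates were normalised to DMSO and benzethonium chloride controls. DSS is computed from the area under the fitted dose-response curve (5 or 9 concentrations).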

DU-4475 [2] = assay: as above
Procedure: as §1

BT-474 = assay: as above
Procedure: as §1

MFM-223 = assay: as above
Procedure: as §1

HDQ-P1 [3] = assay: as above
Procedure: as §1

CAL-148 [4] = assay: as above
Procedure: as §1

BT-549 = assay: as above
Procedure: as §1

CAL-120 = assay: as above
Procedure: as §1

MDA-MB-468 = assay: as above
Procedure: as §1

SK-BR-3 = assay: as above
Procedure: as §1

CAL-85-1 [5] = assay: as above
Procedure: as §1

HCC1599 = assay: as above
Procedure: as §1

MDA-MB-231 = assay: as above
Procedure: as §1

HCC1143 = assay: as above
Procedure: as §1

MDA-MB-453 [6] = assay: as above
Procedure: as §1

CAL-51 [7] = assay: normalised viability (% of control), CellTiter-Blue; higher = more viable cells (about 100 = DMSO control)
Procedure: (§2)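 DSRT, CellTiter-Blue viability, 72 h incubation. Signal is normalised to DMSO and benzethonium chloride controls. Value is the normalised response at dose 9.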

DU-4475 [8] = assay: as above
Procedure: as §2

HDQ-P1 [9] = assay: as above
Procedure: as §2

CAL-148 [10] = assay: as above
Procedure: as §2

CAL-85-1 [11] = assay: as above
Procedure: as §2

MDA-MB-453 [12] = assay: as above
Procedure: as §2

CAL-51 [13] = assay: as above; remark: listed apart in the source
Procedure: (§3)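 DSRT, CellTiter-Blue viability, 72 h incubation. Signal is normalised to DMSO and benzethonium chloride controls. Value is the normalised response at dose 8.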

DU-4475 [14] = assay: as above; remark: listed apart in the source
Procedure: as §3

HDQ-P1 [15] = assay: as above; remark: listed apart in the source
Procedure: as §3

CAL-148 [16] = assay: as above; remark: listed apart in the source
Procedure: as §3

CAL-85-1 [17] = assay: as above; remark: listed apart in the source
Procedure: as §3

MDA-MB-453 [18] = assay: as above; remark: listed apart in the source
Procedure: as §3

Row | Structure (SMILES) | drug sensitivity score (CAL-51 [1]) | drug sensitivity score (DU-4475 [2]) | drug sensitivity score (BT-474) | drug sensitivity score (MFM-223) | drug sensitivity score (HDQ-P1 [3]) | drug sensitivity score (CAL-148 [4]) | drug sensitivity score (BT-549) | drug sensitivity score (CAL-120) | drug sensitivity score (MDA-MB-468) | drug sensitivity score (SK-BR-3) | drug sensitivity score (CAL-85-1 [5]) | drug sensitivity score (HCC1599) | drug sensitivity score (MDA-MB-231) | drug sensitivity score (HCC1143) | drug sensitivity score (MDA-MB-453 [6]) | normalised viability (CAL-51 [7]; 10000 nM) | normalised viability (DU-4475 [8]; 10000 nM) | normalised viability (HDQ-P1 [9]; 10000 nM) | normalised viability (CAL-148 [10]; 10000 nM) | normalised viability (CAL-85-1 [11]; 10000 nM) | also measured
1 | Nc1ccccc1NC(=O)c1ccc(CNC(=O)OCc2cccnc2)cc1 [Entinostat] | 1.7 | 2.81 | 3.64 | 5.32 | 0 | 5.16 | 0 | 8.06 | 7.4 | 12.4 | 5.41 | 4.98 | 4.99 | 2.98 | 5.77 | 29.6% | 0.48% | 71.2% | 9.38% | 20.7% | normalised viability (MDA-MB-453 [12]; 10000 nM): 11.2%; normalised viability (CAL-51 [13]; 3000 nM): 108%; normalised viability (DU-4475 [14]; 3000 nM): 103%; normalised viability (HDQ-P1 [15]; 3000 nM): 80%; normalised viability (CAL-148 [16]; 3000 nM): 58.7%; normalised viability (CAL-85-1 [17]; 3000 nM): 53.7%; normalised viability (MDA-MB-453 [18]; 3000 nM): 50.3%
2 | CC[C@@H]1C(=O)N(C)c2cnc(Nc3ccc(C(=O)NC4CCN(C)CC4)cc3OC)nc2N1C1CCCC1 [BI 2536] | 20.7 | 19.3 | 0 | 19 | 5.37 | 19.7 | 21.3 | 21.6 | 15 | 25.6 | 14.7 | 0 | 16.4 | 13.2 | 23 | – | – | – | – | – | normalised viability (CAL-51 [7]; 1000 nM): 8.2%; normalised viability (DU-4475 [8]; 1000 nM): 44.9%; normalised viability (HDQ-P1 [9]; 1000 nM): 86.2%; normalised viability (CAL-148 [10]; 1000 nM): 44.3%; normalised viability (CAL-85-1 [11]; 1000 nM): 61.6%; normalised viability (MDA-MB-453 [12]; 1000 nM): 25.2%; normalised viability (CAL-51 [13]; 300 nM): 10.6%; normalised viability (DU-4475 [14]; 300 nM): 32.9%; normalised viability (HDQ-P1 [15]; 300 nM): 65.2%; normalised viability (CAL-148 [16]; 300 nM): 41.5%; normalised viability (CAL-85-1 [17]; 300 nM): 61.8%; normalised viability (MDA-MB-453 [18]; 300 nM): 39.5%
3 | NCCCNCCSP(=O)(O)O [Amifostine] | 0 | 0 | 0 | 0 | 0 | 0 | 0 | 0 | 0 | 0 | 0 | 3.86 | 0 | 0 | 0 | 108% | 90.6% | 100% | 95.2% | 89.9% | normalised viability (MDA-MB-453 [12]; 10000 nM): 86.4%; normalised viability (CAL-51 [13]; 3000 nM): 107%; normalised viability (DU-4475 [14]; 3000 nM): 110%; normalised viability (HDQ-P1 [15]; 3000 nM): 94.8%; normalised viability (CAL-148 [16]; 3000 nM): 95.1%; normalised viability (CAL-85-1 [17]; 3000 nM): 91.6%; normalised viability (MDA-MB-453 [18]; 3000 nM): 96.6%
4 | N#Cc1ccc(C(c2ccc(C#N)cc2)n2cncn2)cc1 [Letrozole] | 0 | 0 | 0 | 0 | 0 | 0 | 0 | 0 | 0 | 0 | 0 | 3.7 | 0 | 0 | 0 | 96.3% | 82.9% | 93% | 92.4% | 70.3% | normalised viability (MDA-MB-453 [12]; 10000 nM): 51.8%; normalised viability (CAL-51 [13]; 3000 nM): 111%; normalised viability (DU-4475 [14]; 3000 nM): 85.8%; normalised viability (HDQ-P1 [15]; 3000 nM): 94%; normalised viability (CAL-148 [16]; 3000 nM): 95.5%; normalised viability (CAL-85-1 [17]; 3000 nM): 90%; normalised viability (MDA-MB-453 [18]; 3000 nM): 105%
5 | Nc1nc(F)nc2c1ncn2[C@@H]1O[C@H](CO)[C@@H](O)[C@@H]1O [Fludarabine] | 0 | 0 | 0 | 0 | 0 | 0 | 0.397 | 0 | 0 | 1.12 | 0 | 0 | 0 | 0 | 0 | 101% | 99.3% | 80.1% | 64.9% | 78.1% | normalised viability (MDA-MB-453 [12]; 10000 nM): 93.6%; normalised viability (CAL-51 [13]; 3000 nM): 104%; normalised viability (DU-4475 [14]; 3000 nM): 104%; normalised viability (HDQ-P1 [15]; 3000 nM): 108%; normalised viability (CAL-148 [16]; 3000 nM): 84.5%; normalised viability (CAL-85-1 [17]; 3000 nM): 96.7%; normalised viability (MDA-MB-453 [18]; 3000 nM): 111%
6 | CCN(CC)CCCC(C)Nc1c2ccc(Cl)cc2nc2ccc(OC)cc12 (stereo not drawn) [Mepacrine] | 3.49 and 2.1 | 4.6 and 3.08 | 4.38 and 1.69 | 2.66 and 2.79 | 6.58 and 6.72 | 5.43 and 4.13 | 2.79 and 5 | 6.95 and 4.06 | – | 5.2 and 2.74 | 4.8 and 2.06 | 5.6 and 4.64 | 8.94 and 9.12 | 3.86 and 1.45 | 6.26 and 3.66 | 12.3% | 4.09% | 6.19% | 12.4% | 15.1% | normalised viability (CAL-51 [7]; 990 nM): 34.9%; normalised viability (DU-4475 [8]; 990 nM): 30.9%; normalised viability (HDQ-P1 [9]; 990 nM): 23.8%; normalised viability (CAL-148 [10]; 990 nM): 35.4%; normalised viability (CAL-85-1 [11]; 990 nM): 44.1%; normalised viability (MDA-MB-453 [12]; 990 nM): 15.7%; normalised viability (MDA-MB-453 [12]; 10000 nM): 2.2%; normalised viability (CAL-51 [13]; 297 nM): 93.3%; normalised viability (CAL-51 [13]; 3000 nM): 77.8%; normalised viability (DU-4475 [14]; 297 nM): 84%; normalised viability (DU-4475 [14]; 3000 nM): 69.1%; normalised viability (HDQ-P1 [15]; 297 nM): 56.8%; normalised viability (HDQ-P1 [15]; 3000 nM): 42.9%; normalised viability (CAL-148 [16]; 297 nM): 73.2%; normalised viability (CAL-148 [16]; 3000 nM): 56.4%; normalised viability (CAL-85-1 [17]; 297 nM): 87.8%; normalised viability (CAL-85-1 [17]; 3000 nM): 59.5%; normalised viability (MDA-MB-453 [18]; 297 nM): 89%; normalised viability (MDA-MB-453 [18]; 3000 nM): 43.1%

Reference: the supplement of paper PMC4862054
